Results on 30 compounds are retold here after PubChem BioAssay AID330 (DTP/NCI, 2004).

SMILES strings stand for the structures. Where “and” joins values, the source holds several entries; their conditions need not be identical. Equal values may be shown once. Inconclusive results and toxic doses are left out.

In this assay the test system is P388 leukemia ip, CD2F1 mice, survival T/C. Kind of assay: NCI In Vivo Anticancer Drug Screen. Data for tumor model P388 Leukemia (intraperitoneal) in CD2F1 (CDF1) mice. The following applies: endpoint: median survival time, higher = longer survival. The gist of the method: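 Mice carrying the transplanted tumor received test compound or vehicle. Survival was recorded in each group, and the value is the treated-group measurement divided by that of the vehicle-treated control group.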

Where [1] appears, read: dose: 50.0 mg/kg/injection, schedule: Q01DX005 (ip), vehicle: saline with Tween-80.
Setting [2] is: dose: 100.0 mg/kg/injection, schedule: Q01DX005 (ip), vehicle: saline with Tween-80.
Where [3] appears, read: dose: 200.0 mg/kg/injection, schedule: Q01DX005 (ip), vehicle: saline with Tween-80.
Where [4] appears, read: dose: 50.0 mg/kg/injection, schedule: Q01DX005 (ip), vehicle: Klucel (hydroxypropylcellulose) (HPC).
[5] abbreviates: dose: 100.0 mg/kg/injection, schedule: Q01DX005 (ip), vehicle: Klucel (hydroxypropylcellulose) (HPC).
The mark [6] stands for this setting: dose: 200.0 mg/kg/injection, schedule: Q01DX005 (ip), vehicle: Klucel (hydroxypropylcellulose) (HPC).
The mark [7] stands for this setting: dose: 60.0 mg/kg/injection, schedule: Q01DX005 (ip), vehicle: saline with Tween-80.
[8] abbreviates: dose: 120.0 mg/kg/injection, schedule: Q01DX005 (ip), vehicle: saline with Tween-80.
The mark [9] stands for this setting: dose: 240.0 mg/kg/injection, schedule: Q01DX005 (ip), vehicle: saline with Tween-80.
The mark [10] stands for this setting: dose: 50.0 mg/kg/injection, schedule: Q01DX009 (ip), vehicle: Klucel (hydroxypropylcellulose) (HPC).
[11] abbreviates: dose: 100.0 mg/kg/injection, schedule: Q01DX009 (ip), vehicle: Klucel (hydroxypropylcellulose) (HPC).
Setting [12] is: dose: 50.0 mg/kg/injection, schedule: Q01DX005 (ip), vehicle: saline.
[13] abbreviates: dose: 100.0 mg/kg/injection, schedule: Q01DX005 (ip), vehicle: saline.
Where [14] appears, read: dose: 60.0 mg/kg/injection, schedule: Q01DX005 (ip), vehicle: Klucel (hydroxypropylcellulose) (HPC).
Where [15] appears, read: dose: 120.0 mg/kg/injection, schedule: Q01DX005 (ip), vehicle: Klucel (hydroxypropylcellulose) (HPC).
[16] abbreviates: dose: 240.0 mg/kg/injection, schedule: Q01DX005 (ip), vehicle: Klucel (hydroxypropylcellulose) (HPC).
Setting [17] is: dose: 12.5 mg/kg/injection, schedule: Q01DX009 (ip), vehicle: saline with Tween-80.
Setting [18] is: dose: 25.0 mg/kg/injection, schedule: Q01DX009 (ip), vehicle: saline with Tween-80.
The mark [19] stands for this setting: dose: 50.0 mg/kg/injection, schedule: Q01DX009 (ip), vehicle: saline with Tween-80.

Turning to `Cc1cc(NS(=O)(=O)c2ccc(N=c3c4ccccc4n(C)c4ccccc34)cc2)no1`, the T/C runs as follows: under setting [1], 103 % of control; under setting [2], 102 % of control; under setting [3], 103 % of control.

Regarding `COC(=O)c1cc(=O)n(C)[nH]1`, the T/C is, setting by setting: under setting [4], 104 % of control; under setting [5], 105 % of control; under setting [6], 98 % of control.

With `CC1=CC2(C)C=C(C)C3(OC(c4ccccc4)=C(C#N)C3=N2)C1=O` (stereo not given), the T/C runs as follows: under setting [1], 103 % of control; under setting [2], 105 % of control; under setting [3], 111 % of control.

As for `CC(C)(C)c1cc(C(C)(C)C)c2ssnc1-2`, the T/C under setting [7] was 89 % of control, the T/C under setting [8] is 91 % of control and the T/C under setting [9] is 91 % of control.

Consider `CC(C)CN=C1NS(=O)(=O)c2ccccc21`, for which the T/C runs as follows: under setting [1], 100 % of control; under setting [2], 101 % of control; under setting [3], 101 % of control.

Regarding `N#CN=[N+]([O-])c1ccc(Br)cc1`, the T/C runs as follows: (dose: 6.25 mg/kg/injection, schedule: Q04DX003 (ip), vehicle: Klucel (hydroxypropylcellulose) (HPC)) 108 % of control; (dose: 12.5 mg/kg/injection, schedule: Q04DX003 (ip), vehicle: Klucel (hydroxypropylcellulose) (HPC)) 108 % of control; (dose: 25.0 mg/kg/injection, schedule: Q04DX003 (ip), vehicle: Klucel (hydroxypropylcellulose) (HPC)) 90 % of control.

`CC1(C)OC2OC(COC(=O)c3ccccc3)C(N3OC4C=CC3CC4)C2O1` (stereo not given): the T/C (dose: 100.0 mg/kg/injection, schedule: Q04DX002 (ip), vehicle: Klucel (hydroxypropylcellulose) (HPC)) was 103 % of control; the T/C (dose: 200.0 mg/kg/injection, schedule: Q04DX002 (ip), vehicle: Klucel (hydroxypropylcellulose) (HPC)) was 103 % of control; the T/C (dose: 400.0 mg/kg/injection, schedule: Q04DX002 (ip), vehicle: Klucel (hydroxypropylcellulose) (HPC)) was 102 % of control.

Turning to `Cc1cccc(N2C(=O)C=C(NCc3nc4ccccc4[nH]3)C2c2ccccc2)c1` (stereo not given), the T/C by setting is: under setting [4], 104 % of control; under setting [5], 100 % of control; under setting [6], 100 % of control.

In the case of `CNC(=O)OCc1c(COC(=O)NC)c(-c2ccccc2)n2c1CCC2`, the T/C by setting is: under setting [10], 124 % of control; under setting [11], 124 % of control.

Consider `O=S(=O)(O)CC[S][Sn]([S]CCS(=O)(=O)O)([c]1ccccc1)[c]1ccccc1` (tested in a mixture with another compound), for which the T/C (dose: 1.87 mg/kg/injection, schedule: Q01DX005 (ip), vehicle: Klucel (hydroxypropylcellulose) (HPC)) is 121 % of control and the T/C (dose: 3.75 mg/kg/injection, schedule: Q01DX005 (ip), vehicle: Klucel (hydroxypropylcellulose) (HPC)) is 152 % of control.

With `CN(C)c1ccc(/C=N/NC(=O)C(O)(c2ccccc2)c2ccccc2)cc1`, the T/C is, setting by setting: under setting [7], 102 % of control; under setting [8], 102 % of control; under setting [9], 96 % of control.

As to `CCCC(C)N(CC)CCNc1cc(OC)cc2cccnc12` (stereo not given), the T/C reads like this: under setting [12], 106 % of control; under setting [13], 88 % of control.

With `CCNc1nc(Cl)nc(NCC)n1`, the T/C is, setting by setting: (dose: 100.0 mg/kg/injection, schedule: Q01DX009 (ip), vehicle: saline) 98 % of control; (dose: 200.0 mg/kg/injection, schedule: Q01DX009 (ip), vehicle: saline) 91 % of control; (dose: 400.0 mg/kg/injection, schedule: Q01DX009 (ip), vehicle: saline) 94 % of control.

With `Oc1cc2c(cc1C(c1ccc3c(c1)OCO3)N1CCCC1)OCO2` (stereo not given), the T/C runs as follows: under setting [14], 109 % of control; under setting [15], 110 % of control; under setting [16], 112 % of control.

Take `Cn1c(N)c(C(=O)CCc2ccccc2)c(=O)n(C)c1=O`: the T/C runs as follows: under setting [1], 97 % of control; under setting [2], 97 % of control; under setting [3], 96 % of control.

As for `CC(C)(C)[OH+][O-].[O-]c1ccc(Cl)cc1C=Nc1ccc(Cl)cc1[O-].[O]=[V]`, the T/C is, setting by setting: (dose: 15.0 mg/kg/injection, schedule: Q01DX005 (ip), vehicle: saline with Tween-80) 100 % of control; (dose: 30.0 mg/kg/injection, schedule: Q01DX005 (ip), vehicle: saline with Tween-80) 100 % of control; under setting [7], 101 % of control and 93 % of control.

`COc1ccc(NC2=C(Cl)C(=O)C(Nc3ccc(OC)cc3)=C(Cl)C2=O)cc1`: the T/C under setting [1] is 95 % of control, the T/C under setting [2] is 97 % of control and the T/C under setting [3] is 98 % of control.

`C=CCC(C=C=CCN(C)C)CO` (stereo not given): the T/C was 103 % of control under setting [12] and 104 % of control under setting [13].

`CC1OCN2CCCCC12` (stereo not given): the T/C runs as follows: (dose: 25.0 mg/kg/injection, schedule: Q01DX005 (ip), vehicle: saline) 107 % of control; under setting [12], 118 % of control.

`COc1ccccc1Nc1n[nH]c(=S)s1`: the T/C is 121 % of control under setting [10]; 105 % of control under setting [11]; 95 % of control (dose: 200.0 mg/kg/injection, schedule: Q01DX009 (ip), vehicle: Klucel (hydroxypropylcellulose) (HPC)).

In the case of `N#Cc1ncc(C[P+](c2ccccc2)(c2ccccc2)c2ccccc2)nc1N`, the T/C under setting [17] is 91 % of control, the T/C under setting [18] is 94 % of control and the T/C under setting [19] was 95 % of control.

With `O=S(=O)(O)O.[NH-]CC(N)=O.[NH-]CC(N)=O.[Ni+2]`, the T/C reads like this: (dose: 1.0 mg/kg/injection, schedule: Q01DX009 (ip), vehicle: saline) 95 % of control; (dose: 2.0 mg/kg/injection, schedule: Q01DX009 (ip), vehicle: saline) 90 % of control; (dose: 4.0 mg/kg/injection, schedule: Q01DX009 (ip), vehicle: saline) 95 % of control; (dose: 8.0 mg/kg/injection, schedule: Q01DX009 (ip), vehicle: saline) 90 % of control.

In the case of `O=C1NCC(COc2ccc([N+](=O)[O-])cc2)O1` (stereo not given), the T/C is, setting by setting: under setting [14], 109 % of control; under setting [15], 90 % of control; under setting [16], 93 % of control.

With `NCCCCCCCC(=O)NCCCCCCCC(=O)NCCCCCCCC(=O)NCCCCCCCC(=O)NN`, the T/C is, setting by setting: under setting [1], 100 % of control; under setting [2], 100 % of control; under setting [3], 91 % of control.

In the case of `CC1(C)C(C)(C)C1(Br)Br`, the T/C (dose: 12.5 mg/kg/injection, schedule: Q01DX009 (ip), vehicle: saline + alcohol) is 102 % of control; the T/C (dose: 25.0 mg/kg/injection, schedule: Q01DX009 (ip), vehicle: saline + alcohol) was 111 % of control; the T/C (dose: 50.0 mg/kg/injection, schedule: Q01DX009 (ip), vehicle: saline + alcohol) is 103 % of control; the T/C (dose: 100.0 mg/kg/injection, schedule: Q01DX009 (ip), vehicle: saline + alcohol) is 100 % of control and 95 % of control; the T/C (dose: 200.0 mg/kg/injection, schedule: Q01DX009 (ip), vehicle: saline + alcohol) is 89 % of control.

Turning to `Cc1ccc2nc(NC(=O)OCc3ccccc3)sc2c1`, the T/C by setting is: (dose: 6.25 mg/kg/injection, schedule: Q01DX009 (ip), vehicle: Klucel (hydroxypropylcellulose) (HPC)) 97 % of control; (dose: 12.5 mg/kg/injection, schedule: Q01DX009 (ip), vehicle: Klucel (hydroxypropylcellulose) (HPC)) 101 % of control.

In the case of `c1ccc([P+](CC[P+](c2ccccc2)(c2ccccc2)c2ccccc2)(c2ccccc2)c2ccccc2)cc1`, the T/C reads like this: (dose: 0.78 mg/kg/injection, schedule: Q01DX009 (ip), vehicle: saline) 105 % of control; (dose: 1.56 mg/kg/injection, schedule: Q01DX009 (ip), vehicle: saline) 103 % of control.

`CC1(c2ccccc2)Nc2ccccc2N(C(=O)c2ccccc2)C1c1ccccc1` (stereo not given): the T/C by setting is: under setting [14], 91 % of control; under setting [15], 90 % of control.

Take `CCNCc1c(C)nc2ccc(N(C)C)cc2c1Cl`: the T/C under setting [17] is 91 % of control, the T/C under setting [18] is 104 % of control and the T/C under setting [19] was 88 % of control.

Regarding `NNC(=O)C(=O)n1ccnc1`, the T/C was 95 % of control under setting [1], 102 % of control under setting [2] and 101 % of control under setting [3].
